The values that follow come from US20120220581A1, “IMIDAZO[1,2-b]PYRIDAZINE DERIVATIVES AND THEIR USE AS PDE10 INHIBITORS” (Janssen-Cilag, S.A., priority 2009, published 2012).

Read-outs that look alike come from different tables or passages of the source. Where only a bound is given, the exact number is not on record here.

In test [1] the target is PDE4D3 (Homo sapiens, UniProt Q08499). In words: In vitro PDE selectivity assay (SPA), PDE4D3. It is filed as biochemical. The note with it: hPDE4D3; read-out: PDE 4D3 (expressed as pIC50) (converted). The essentials: (§1)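 Inhibition of each PDE isoform was measured by scintillation proximity assay with ³H-cyclic nucleotide substrate, using incubation buffer, substrate concentration, incubation time and stop solution adapted per isoform. Compounds were tested in dose-response against 1% DMSO controls and enzyme-free blanks. IC50 came from a least-squares fit of blank-subtracted % of control versus concentration.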

In test [2] the target is other members of the PDE family (Homo sapiens, UniProt O00408). Description: In vitro PDE selectivity assay (SPA), other members of the PDE family (protocols in Table A). It is filed as biochemical. Conditions: hPDE2A; read-out: PDE 2A (expressed as pIC50) (converted). The essentials:
as §1

Test [3] addresses other members of the PDE family (Homo sapiens, UniProt O76083). Described as above. Format: biochemical. The note with it: hPDE9A; read-out: PDE 9A (expressed as pIC50) (converted). Put shortly: as §1
For test [4], the target named is other members of the PDE family (Homo sapiens, UniProt Q14432). The description is as above. Conditions: hPDE3A; read-out: PDE 3A (expressed as pIC50) (converted). Format: biochemical. Put shortly: as §1
The target of test [5] is other members of the PDE family (Homo sapiens, UniProt Q9HCR9). The test is described as above. The note with it: hPDE11A4; read-out: PDE 11A4 (expressed as pIC50) (converted). Format: biochemical. The essentials:
as §1

Test [6] deals with other members of the PDE family (Homo sapiens, UniProt Q13946). The test is described as above. It is filed as biochemical. The note with it: hPDE7A1; read-out: PDE 7A (expressed as pIC50) (converted). The essentials: as §1
Test [7] deals with PDE5A3 (Homo sapiens, UniProt O76074). Description: In vitro PDE selectivity assay (SPA), PDE5A3. It is filed as biochemical. Conditions: hPDE5A3; read-out: PDE 5A3 (expressed as pIC50) (converted). The essentials: as §1
Test [8] concerns the target T1, Rat recombinant PDE10A (rPDE10A2) (Rattus norvegicus, UniProt Q9QYJ6).
T1 construct: inferred from the Ni metal chelate purification; made in house; host or cells: Sf9 insect cells (baculovirus)
T1 sequence (Q9QYJ6 1-794): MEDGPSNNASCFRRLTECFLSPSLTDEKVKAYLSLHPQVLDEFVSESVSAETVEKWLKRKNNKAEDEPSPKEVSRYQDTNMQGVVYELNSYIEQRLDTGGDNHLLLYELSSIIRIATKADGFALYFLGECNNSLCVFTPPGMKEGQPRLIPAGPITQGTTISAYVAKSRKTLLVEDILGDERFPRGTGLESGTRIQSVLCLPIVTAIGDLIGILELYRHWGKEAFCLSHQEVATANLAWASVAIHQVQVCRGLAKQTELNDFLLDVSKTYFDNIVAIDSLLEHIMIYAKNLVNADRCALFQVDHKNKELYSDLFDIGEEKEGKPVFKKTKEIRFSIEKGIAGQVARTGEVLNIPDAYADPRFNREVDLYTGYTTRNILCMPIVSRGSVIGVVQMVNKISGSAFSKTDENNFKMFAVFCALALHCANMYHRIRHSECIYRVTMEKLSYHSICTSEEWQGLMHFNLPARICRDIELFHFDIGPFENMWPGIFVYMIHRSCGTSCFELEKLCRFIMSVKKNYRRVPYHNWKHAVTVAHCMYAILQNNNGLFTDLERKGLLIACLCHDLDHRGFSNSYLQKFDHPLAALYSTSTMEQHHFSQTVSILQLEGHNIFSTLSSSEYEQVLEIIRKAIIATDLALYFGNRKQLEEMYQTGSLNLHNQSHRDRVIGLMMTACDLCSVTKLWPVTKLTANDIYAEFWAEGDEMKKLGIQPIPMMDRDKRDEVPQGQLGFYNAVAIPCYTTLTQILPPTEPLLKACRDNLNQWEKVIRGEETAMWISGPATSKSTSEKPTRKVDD
Description: In vitro assay PDE10A (SPA, 3H-cAMP). Format: biochemical. Put shortly: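 Scintillation proximity read-out (cpm) of 3H-cAMP hydrolysis after 60 min at room temperature, with enzyme-free blanks and 1% DMSO controls. Enzyme was Sf9-expressed, Ni-sepharose-purified rat rPDE10A2; substrate 60 nM cAMP with tracer, buffer Tris pH 7.8 containing MgCl2 and EGTA.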

The target of test [9] is T2, PDE10 (Rattus norvegicus, UniProt Q9QYJ6).
T2 construct: from tissue; host or cells: rat brain sections, striatum (in vivo dosing, ex vivo autoradiography)
T2 sequence (Q9QYJ6 1-794): T1 sequence (Q9QYJ6 1-794)
In words: PDE10 occupancy ([3H]-MP-10, striatum). The note with it: for receptor occupancy at 10 mg/kg / ED50: rat, sc; for receptor occupancy at 10 mg/kg: single dose 10 mg/kg, subcutaneous, read-out: SD sc % occupancy at 10 mg/kg; for ED50: dose response, subcutaneous administration, read-out: PDE10 in vivo occupancy ED50 sc. It is filed as in vivo. The essentials:
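Male Wistar rats (200 g) dosed s.c. or p.o.; occupancy measured 1 h post-dose. [^3H]-MP-10 (10 μCi/animal) given i.v. 30 min before sacrifice.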

For test [10], the system named is apomorphine-induced stereotypy in rats. Description: Apomorphine-induced stereotypy in rats (APO). Conditions: Rattus norvegicus; dose at which 50% of the tested animals show the effect; ≧: active in 30% of the animals at the indicated dose; ≦: active in 60%. Format: in vivo. Here is the method: Apomorphine (1.0 mg/kg, i.v.)-induced stereotypy (compulsive sniffing, licking, chewing) was scored every 5 min over the first hour after injection of apomorphine, following a 1 hour interval pre-treatment with the test compound. The score system was: (3) pronounced, (2) moderate, (1) slight, and (0) absent.

Setting [11] is: Table 4 in vitro selectivity, read-out: PDE 10A2 (expressed as pIC50) (converted).
Setting [12] is: pIC50 corresponds to the −log IC50 expressed in mol/L, read-out: PDE10A2 pIC50 (converted).

Sequence of other members of the PDE family (Homo sapiens, UniProt O76083) (O76083 whole entry): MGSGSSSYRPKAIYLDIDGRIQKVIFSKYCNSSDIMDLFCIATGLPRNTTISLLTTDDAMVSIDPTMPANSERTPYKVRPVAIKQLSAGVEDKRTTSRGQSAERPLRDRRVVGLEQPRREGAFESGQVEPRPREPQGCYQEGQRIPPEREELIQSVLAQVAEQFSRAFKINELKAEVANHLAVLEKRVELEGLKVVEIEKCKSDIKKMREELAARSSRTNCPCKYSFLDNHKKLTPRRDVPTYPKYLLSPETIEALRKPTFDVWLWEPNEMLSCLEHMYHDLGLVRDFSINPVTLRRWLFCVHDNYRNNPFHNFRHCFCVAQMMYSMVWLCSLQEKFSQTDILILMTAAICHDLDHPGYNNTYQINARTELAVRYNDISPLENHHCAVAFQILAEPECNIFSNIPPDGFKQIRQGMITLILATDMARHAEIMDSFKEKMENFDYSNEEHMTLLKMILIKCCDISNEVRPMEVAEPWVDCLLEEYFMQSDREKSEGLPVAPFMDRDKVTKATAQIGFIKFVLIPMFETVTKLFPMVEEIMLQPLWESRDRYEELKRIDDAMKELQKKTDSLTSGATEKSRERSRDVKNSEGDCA
Sequence of other members of the PDE family (Homo sapiens, UniProt Q14432) (Q14432 whole entry): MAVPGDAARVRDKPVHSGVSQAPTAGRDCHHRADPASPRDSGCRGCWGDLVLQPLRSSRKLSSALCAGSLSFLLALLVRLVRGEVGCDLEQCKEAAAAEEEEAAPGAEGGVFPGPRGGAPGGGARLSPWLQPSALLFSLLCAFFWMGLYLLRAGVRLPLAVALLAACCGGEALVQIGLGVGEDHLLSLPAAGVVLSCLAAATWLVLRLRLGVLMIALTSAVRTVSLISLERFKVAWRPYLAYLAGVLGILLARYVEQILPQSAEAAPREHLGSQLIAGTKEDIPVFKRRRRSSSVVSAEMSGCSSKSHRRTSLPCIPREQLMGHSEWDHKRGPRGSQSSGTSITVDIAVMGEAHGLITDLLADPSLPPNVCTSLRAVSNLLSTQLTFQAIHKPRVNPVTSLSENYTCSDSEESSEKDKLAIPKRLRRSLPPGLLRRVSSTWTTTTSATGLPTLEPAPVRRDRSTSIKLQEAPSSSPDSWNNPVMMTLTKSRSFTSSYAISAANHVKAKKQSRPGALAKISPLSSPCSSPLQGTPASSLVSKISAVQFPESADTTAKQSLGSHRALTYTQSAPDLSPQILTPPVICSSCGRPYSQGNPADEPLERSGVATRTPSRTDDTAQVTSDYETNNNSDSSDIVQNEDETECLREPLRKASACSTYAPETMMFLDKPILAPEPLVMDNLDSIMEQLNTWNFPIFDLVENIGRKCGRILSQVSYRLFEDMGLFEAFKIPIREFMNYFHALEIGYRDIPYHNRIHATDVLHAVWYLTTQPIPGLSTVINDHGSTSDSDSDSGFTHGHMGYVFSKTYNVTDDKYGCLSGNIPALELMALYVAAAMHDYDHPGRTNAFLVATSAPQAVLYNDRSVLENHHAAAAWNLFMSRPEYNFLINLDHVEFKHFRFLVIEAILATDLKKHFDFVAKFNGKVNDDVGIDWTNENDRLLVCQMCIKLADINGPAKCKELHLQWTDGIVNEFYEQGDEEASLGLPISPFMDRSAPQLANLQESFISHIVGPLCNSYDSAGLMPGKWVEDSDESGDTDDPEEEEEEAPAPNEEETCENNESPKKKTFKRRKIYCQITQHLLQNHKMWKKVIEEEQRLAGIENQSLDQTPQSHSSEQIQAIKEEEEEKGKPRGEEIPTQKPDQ
Sequence of PDE4D3 (Q08499 1-673 isoform Q08499-2): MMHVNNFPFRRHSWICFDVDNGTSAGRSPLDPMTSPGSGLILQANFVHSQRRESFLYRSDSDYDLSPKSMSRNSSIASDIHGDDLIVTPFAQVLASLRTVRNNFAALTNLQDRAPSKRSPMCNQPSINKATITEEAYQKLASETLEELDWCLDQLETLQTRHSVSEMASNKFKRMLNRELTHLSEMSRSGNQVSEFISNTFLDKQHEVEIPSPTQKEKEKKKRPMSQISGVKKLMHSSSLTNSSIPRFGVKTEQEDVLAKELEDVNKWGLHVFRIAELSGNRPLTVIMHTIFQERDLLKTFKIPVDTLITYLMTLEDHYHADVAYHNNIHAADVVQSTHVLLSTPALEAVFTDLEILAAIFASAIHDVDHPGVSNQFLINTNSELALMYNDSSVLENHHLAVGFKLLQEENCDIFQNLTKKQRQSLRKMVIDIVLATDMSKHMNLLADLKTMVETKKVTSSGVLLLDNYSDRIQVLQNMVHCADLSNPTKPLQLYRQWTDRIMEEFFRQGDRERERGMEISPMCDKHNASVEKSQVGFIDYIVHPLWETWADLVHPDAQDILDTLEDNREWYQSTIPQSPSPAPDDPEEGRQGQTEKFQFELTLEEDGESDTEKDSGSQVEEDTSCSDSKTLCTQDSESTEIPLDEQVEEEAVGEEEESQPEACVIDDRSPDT
Sequence of other members of the PDE family (Homo sapiens, UniProt O00408) (O00408 whole entry): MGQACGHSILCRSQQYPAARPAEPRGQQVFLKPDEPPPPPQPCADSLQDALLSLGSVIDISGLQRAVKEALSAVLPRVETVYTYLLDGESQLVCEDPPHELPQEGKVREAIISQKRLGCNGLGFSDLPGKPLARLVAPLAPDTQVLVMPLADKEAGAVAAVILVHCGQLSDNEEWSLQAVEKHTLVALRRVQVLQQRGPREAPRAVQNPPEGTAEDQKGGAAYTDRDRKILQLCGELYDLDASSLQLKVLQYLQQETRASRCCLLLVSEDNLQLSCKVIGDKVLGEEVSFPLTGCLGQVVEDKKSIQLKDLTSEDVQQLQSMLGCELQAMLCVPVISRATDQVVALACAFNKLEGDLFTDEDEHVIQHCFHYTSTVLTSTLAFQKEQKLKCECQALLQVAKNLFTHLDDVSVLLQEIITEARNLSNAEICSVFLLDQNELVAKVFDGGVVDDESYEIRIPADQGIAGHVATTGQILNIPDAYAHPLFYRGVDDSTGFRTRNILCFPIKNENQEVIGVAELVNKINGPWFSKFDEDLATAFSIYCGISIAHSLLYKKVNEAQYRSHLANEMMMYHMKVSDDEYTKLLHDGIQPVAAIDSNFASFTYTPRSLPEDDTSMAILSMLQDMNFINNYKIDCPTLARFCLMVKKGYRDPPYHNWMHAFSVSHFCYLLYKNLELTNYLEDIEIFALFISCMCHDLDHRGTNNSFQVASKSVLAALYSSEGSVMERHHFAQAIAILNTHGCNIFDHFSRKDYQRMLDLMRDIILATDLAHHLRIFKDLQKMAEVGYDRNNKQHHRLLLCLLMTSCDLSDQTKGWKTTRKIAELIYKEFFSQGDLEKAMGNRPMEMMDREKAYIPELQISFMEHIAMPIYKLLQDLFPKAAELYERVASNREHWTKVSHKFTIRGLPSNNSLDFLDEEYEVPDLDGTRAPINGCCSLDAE
Sequence of other members of the PDE family (Homo sapiens, UniProt Q13946) (Q13946 whole entry): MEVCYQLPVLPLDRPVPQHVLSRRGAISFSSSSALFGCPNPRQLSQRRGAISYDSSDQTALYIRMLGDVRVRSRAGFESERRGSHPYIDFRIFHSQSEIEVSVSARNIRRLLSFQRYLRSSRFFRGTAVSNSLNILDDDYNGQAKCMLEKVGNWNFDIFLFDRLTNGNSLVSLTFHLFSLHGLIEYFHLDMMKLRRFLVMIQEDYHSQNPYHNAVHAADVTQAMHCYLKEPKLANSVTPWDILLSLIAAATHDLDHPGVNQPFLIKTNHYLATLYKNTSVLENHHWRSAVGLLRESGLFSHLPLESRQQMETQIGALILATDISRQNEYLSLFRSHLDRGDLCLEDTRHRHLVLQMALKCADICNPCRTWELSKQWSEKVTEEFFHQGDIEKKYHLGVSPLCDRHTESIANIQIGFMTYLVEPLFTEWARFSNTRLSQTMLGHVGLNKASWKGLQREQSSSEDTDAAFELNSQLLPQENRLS
Sequence of other members of the PDE family (Homo sapiens, UniProt Q9HCR9) (Q9HCR9 whole entry): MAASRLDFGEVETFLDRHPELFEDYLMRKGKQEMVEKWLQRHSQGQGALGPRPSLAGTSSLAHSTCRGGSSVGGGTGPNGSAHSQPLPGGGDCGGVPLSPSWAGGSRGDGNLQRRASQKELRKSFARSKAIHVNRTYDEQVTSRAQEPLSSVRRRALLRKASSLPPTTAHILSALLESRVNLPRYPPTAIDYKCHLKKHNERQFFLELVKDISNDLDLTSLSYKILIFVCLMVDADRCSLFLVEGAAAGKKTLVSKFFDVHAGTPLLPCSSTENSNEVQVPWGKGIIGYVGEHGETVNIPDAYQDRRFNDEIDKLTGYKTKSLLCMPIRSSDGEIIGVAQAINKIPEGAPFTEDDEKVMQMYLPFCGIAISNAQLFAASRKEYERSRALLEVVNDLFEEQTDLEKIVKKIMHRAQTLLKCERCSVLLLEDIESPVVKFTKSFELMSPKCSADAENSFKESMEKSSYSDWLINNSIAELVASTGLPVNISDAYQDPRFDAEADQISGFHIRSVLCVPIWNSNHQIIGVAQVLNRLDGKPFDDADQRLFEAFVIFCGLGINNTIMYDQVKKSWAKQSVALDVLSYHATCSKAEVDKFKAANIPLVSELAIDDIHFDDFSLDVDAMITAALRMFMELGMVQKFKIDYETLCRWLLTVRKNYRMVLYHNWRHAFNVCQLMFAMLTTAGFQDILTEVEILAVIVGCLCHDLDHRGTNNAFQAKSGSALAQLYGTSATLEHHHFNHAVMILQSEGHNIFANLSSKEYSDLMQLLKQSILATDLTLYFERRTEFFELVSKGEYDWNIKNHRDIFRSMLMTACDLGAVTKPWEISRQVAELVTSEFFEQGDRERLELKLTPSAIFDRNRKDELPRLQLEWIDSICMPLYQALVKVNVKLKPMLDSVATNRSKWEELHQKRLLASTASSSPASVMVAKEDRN

The term ED50 denotes the dose that gives a 50% effect, or the effect in half of the subjects. Take `Cc1nc2c(N3CCOCC3)ccnn2c1-c1cnn(CC(C)C)c1` [compound 35, 2-methyl-3-[1-(2-methylpropyl)-1H-pyrazol-4-yl]-8-(4-morpholinyl)-imidazo[1,2-b]pyridazine]: the IC50 is over 10 µM in test [1]; over 10 µM in [2]; over 10 µM in test [3]; 7.41 µM in [4]; over 10 µM in [5]; over 10 µM in test [6]. For the same molecule, the IC50 in test [7] was over 10 µM; in [8] (setting [11]), 0.038 µM; in [8] (setting [12]), 0.038 µM. For the same molecule, the receptor occupancy at 10 mg/kg in test [9] came out at 67%. The molecule also came in with an ED50 in test [10] of 5 mg/kg.

As to `COC(C)(C)Cn1cc(-c2c(C)nc3c(N4CCOCC4)ccnn23)cn1` [compound 37, 3-[1-(2-methoxy-2-methylpropyl)-1H-pyrazol-4-yl]-2-methyl-8-(4-morpholinyl)-imidazo[1,2-b]pyridazine], the IC50 in [1] was 30.9 µM; in test [2], 53.7 µM; in [3] it was over 100 µM; in test [4] it was 11 µM; in [5], 39.8 µM; in test [6] it was 45.7 µM. Also, the IC50 was 6.03 µM in test [7], 0.0501 µM in test [8] (setting [11]) and 0.0501 µM in [8] (setting [12]). Besides, the ED50 in test [9] is 2.2 mg/kg; in [10], 1.5 mg/kg. Moreover, the receptor occupancy at 10 mg/kg in test [9] was determined as 67%.

In the case of `Cc1nc2c(-c3ccncc3)ccnn2c1-c1cnn(CC(C)C)c1` [compound 124, 2-methyl-3-[1-(2-methylpropyl)-1H-pyrazol-4-yl]-8-(4-pyridinyl)-imidazo[1,2-b]pyridazine], the IC50 in test [1] is 7.41 µM; in [2] it was 8.71 µM; in test [3], over 10 µM; in test [4], 6.92 µM; in test [5], 5.37 µM; in test [6] it was 5.37 µM. Moreover, the IC50 in test [7] is 1.95 µM; in test [8] (setting [11]) it was 0.0224 µM; in test [8] (setting [12]), 0.0224 µM. For the same molecule, the results for the ED50 in test [9] and in test [10] were 3 mg/kg and 1.2 mg/kg, respectively.

Consider `COCCn1cc(-c2c(C)nc3c(N4CCOCC4)cc(C4CC4)nn23)cn1` [compound 125, 6-cyclopropyl-3-[1-(2-methoxyethyl)-1H-pyrazol-4-yl]-2-methyl-8-(4-morpholinyl)-imidazo[1,2-b]pyridazine], for which the IC50 in test [1] was 2.09 µM; in test [2], 8.51 µM; in test [3], over 10 µM; in test [4] it was over 10 µM; in test [5], 4.47 µM; in test [6], over 10 µM. Moreover, the IC50 in test [7] is 1.26 µM; in test [8] (setting [11]), 0.0832 µM; in [8] (setting [12]) it was 0.0832 µM. The “% occupancy at the highest dose tested” value in test [9] (dose response sc, data between brackets) was determined as 42%. In addition, the ED50 in [9] was over 10 mg/kg; in test [10] it was at least 2.5 mg/kg.

Consider `CCc1nc2c(N3CCOCC3)ccnn2c1-c1cnn(CCOC)c1` [compound 127, 2-ethyl-3-[1-(2-methoxyethyl)-1H-pyrazol-4-yl]-8-(4-morpholinyl)-imidazo[1,2-b]pyridazine], for which the IC50 in [1], in [2], in test [3], in test [4], in [5] and in test [6] was over 10 µM in each case. In addition, the IC50 in test [7] was 4.68 µM; in [8] (setting [11]) it was 0.112 µM; in test [8] (setting [12]) it was 0.112 µM. Further, the receptor occupancy at 10 mg/kg in test [9] was found to be 4%. For the same molecule, the ED50 in test [10] turned out to be 2 mg/kg.

`CO[C@@H](C)Cn1cc(-c2c(C)nc3c(N4CCOCC4)ccnn23)cn1` [compound 131, 3-[1-[(2S)-2-methoxypropyl]-1H-pyrazol-4-yl]-2-methyl-8-(4-morpholinyl)-imidazo[1,2-b]pyridazine]: the IC50 in [1], in test [2], in [3], in test [4], in test [5] and in test [6] was over 10 µM throughout. For the same molecule, the IC50 is 8.51 µM in test [7], 0.0347 µM in test [8] (setting [11]) and 0.0347 µM in test [8] (setting [12]). For the same molecule, in test [9], the receptor occupancy at 10 mg/kg turned out to be 59%. The ED50 in [10] was found to be 3.1 mg/kg.

Consider `COCCn1cc(-c2c(C3CC3)nc3c(-c4ccncc4)ccnn23)cn1` [compound 142, 2-cyclopropyl-3-[1-(2-methoxyethyl)-1H-pyrazol-4-yl]-8-(4-pyridinyl)-imidazo[1,2-b]pyridazine], for which the IC50 in [1] was 2.82 µM; in test [2], 5.5 µM; in test [3], over 10 µM; in [4], 5.13 µM; in [5], 1.82 µM; in [6], 5.01 µM. For the same molecule, the IC50 is 1.15 µM in test [7], 0.0145 µM in test [8] (setting [11]) and 0.0145 µM in test [8] (setting [12]). Moreover, the receptor occupancy at 10 mg/kg in test [9] stood at 78%. This molecule also had a median effective dose (ED50) in test [10] of 5 mg/kg.

`COCCn1cc(-c2c(C)nc3c(-c4ccncc4)cc(Cl)nn23)cn1` [compound 147, 6-chloro-3-[1-(2-methoxyethyl)-1H-pyrazol-4-yl]-2-methyl-8-(4-pyridinyl)-imidazo[1,2-b]pyridazine]: the IC50 is 3.8 µM in [1]; over 10 µM in test [2]; over 10 µM in test [3]; over 10 µM in [4]; 3.8 µM in test [5]; 3.55 µM in [6]. For the same molecule, the results for the IC50 in [7], in test [8] (setting [11]) and in test [8] (setting [12]) were 1.17 µM, 0.0676 µM and 0.0676 µM, respectively. In test [9], the receptor occupancy at 10 mg/kg worked out at 22%. In test [10], this molecule returned an ED50 of 5 mg/kg.

For the molecule `CC(C)Cn1cc(-c2c(C3CC3)nc3c(-c4ccncc4)ccnn23)cn1` [compound 148, 2-cyclopropyl-3-[1-(2-methylpropyl)-1H-pyrazol-4-yl]-8-(4-pyridinyl)-imidazo[1,2-b]pyridazine], the IC50 in test [1] was 2.57 µM; in test [2], 4.37 µM; in [3], over 10 µM; in test [4] it was 3.16 µM; in test [5], 1.91 µM; in test [6], 2.88 µM. The IC50 was 1.23 µM in [7], 0.0251 µM in test [8] (setting [11]) and 0.0251 µM in test [8] (setting [12]). In addition, in [9], the receptor occupancy at 10 mg/kg worked out at 66%. In addition, in [10], the ED50 was 5 mg/kg.
